According to US20260027068A1, “METHODS OF ADM[…]-KETAMINE” (Perception Neuroscience, Inc., priority 2022, published 2026):

System: subjects with TRD
Assay: Adverse events (TEAEs, SAEs) in the TRD study
Format: in vivo, human
Conditions: for Number of subjects with TEAE, Mild / Number of subjects with TEAE, Moderate / Number of subjects with TEAE, Severe / Percent of subjects with TEAE, Mild / Percent of subjects with TEAE, Moderate / Percent of subjects with TEAE, Severe: maximum severity
From the text: The definitions of an AE and SAE can be found in Section F. AEs were reported by the subject (or, when appropriate, by a caregiver, surrogate, or the subject's legally authorized representative). The Investigator and any designees were responsible for detecting, documenting, and recording events that meet the definition of an AE or SAE and remained responsible for following up AEs that were serious, considered related to the study treatment or study procedures, or that caused the subject to discontinue from the study.
All AEs were collected from the signing of the ICF until the second follow-up visit (Day 15) at the time points specified in the Schedule of Activities (Section C). Medical occurrences that began before the start of study treatment but after obtaining informed consent were recorded on the Medical History/Current Medical Conditions section of the CRF, not the AE section. All SAEs were recorded and reported to the Sponsor or designee within 24 hours as indicated in Section F. The Investigator submitted any updated SAE data to the Sponsor or designee within 24 hours of it being available. Investigators were not obligated to actively seek AE or SAE information after the conclusion of study participation. However, if the Investigator learns of any SAE, including a death, at any time after a subject has been discharged from the study, and he/she considers the event to be reasonably related to the study treatment or study participation, the Investigator must promptly notify the Sponsor or designee. The method of recording, evaluating, and assessing the causality of AEs and SAEs and the procedures for completing and transmitting SAE reports are provided in Section F.
An AE is any untoward medical occurrence in a patient or subject, temporally associated with the use of study treatment, whether or not considered related to the study treatment. An AE can therefore be any unfavorable and unintended sign (including an abnormal laboratory finding), symptom, or disease (new or exacerbated) temporally associated with the use of study treatment.
If an event is not an AE per the definition above, then it cannot be an SAE even if serious conditions are met (e.g., hospitalization for signs/symptoms of the disease under study). A Serious Adverse Event (SAE) is defined as any untoward medical occurrence that, at any dose: a) results in death; b) is life-threatening; c) requires inpatient hospitalization or prolongation of existing hospitalization; d) results in persistent disability/incapacity; or e) is a congenital anomaly/birth defect. The term “life-threatening” in the definition of “serious” refers to an event in which the subject was at risk of death at the time of the event. […] In general, hospitalization signifies that the subject has been detained (usually involving at least an overnight stay) at the hospital or emergency ward for observation and/or treatment that would not have been appropriate in the physician's office or outpatient setting. Complications that occur during hospitalization are AEs. If a complication prolongs hospitalization or fulfills any other serious criteria, the event is serious. When in doubt as to whether “hospitalization” occurred or was necessary, the AE should be considered serious. […] The term disability means a substantial disruption of a person's ability to conduct normal life functions.
(MedDRA; Version 23.0 or higher). Treatment-emergent adverse events (TEAEs) are AEs with onset or worsening after the start of study treatment. The AE summaries will be primarily based on TEAEs. The number and percentage of subjects with TEAEs will be summarized by treatment group, system organ class, and preferred term for all TEAEs, treatment-related TEAEs, SAEs, serious TEAEs, severe TEAEs, TEAEs of special interest, and all TEAEs leading to study drug discontinuation. All TEAEs will be further summarized by maximum severity and causality. The TEAEs of special interest will be identified in the SAP. […]

CN[C@@]1(c2ccccc2Cl)CCCCC1=O.Cl [R(−)-ketamine, (2R)-2-(2-chlorophenyl)-2-(methylamino)cyclohexan-1-one]
Number of subjects with Any adverse events (AE) (30 mg (n = 33)): 11
Number of subjects with Serious TEAEs resulting in treatment discontinuation (30 mg (n = 33)): 0
Number of subjects with TEAE with outcome of death (30 mg (n = 33)): 0
Number of subjects with TEAEs of COVID-19 (30 mg (n = 33)): 0
Number of subjects with TEAEs resulting in discontinuation from study (30 mg (n = 33)): 0
Number of subjects with TEAEs resulting in treatment discontinuation (30 mg (n = 33)): 0
Number of subjects with Treatment-emergent SAE, Mild (30 mg (n = 33)): 0
Number of subjects with Treatment-emergent SAE, Moderate (30 mg (n = 33)): 0
Number of subjects with Treatment-emergent SAE, Severe (30 mg (n = 33)): 0
Number of subjects with Treatment-emergent adverse events (TEAE) (30 mg (n = 33)): 11
Number of subjects with Treatment-emergent serious adverse events (SAE) (30 mg (n = 33)): 0
Number of subjects with Treatment-related TEAEs (30 mg (n = 33)): 10
Number of subjects with Treatment-related and severe TEAEs (30 mg (n = 33)): 0
Number of subjects with Treatment-related treatment-emergent SAEs (30 mg (n = 33)): 0
Percent of subjects with Any adverse events (AE) (30 mg (n = 33)): (33) %
Percent of subjects with Serious TEAEs resulting in treatment discontinuation (30 mg (n = 33)): (0) %
Percent of subjects with TEAE with outcome of death (30 mg (n = 33)): (0) %
Percent of subjects with TEAEs of COVID-19 (30 mg (n = 33)): (0) %
Percent of subjects with TEAEs resulting in discontinuation from study (30 mg (n = 33)): (0) %
Percent of subjects with TEAEs resulting in treatment discontinuation (30 mg (n = 33)): (0) %
Percent of subjects with Treatment-emergent SAE, Mild (30 mg (n = 33)): (0) %
Percent of subjects with Treatment-emergent SAE, Moderate (30 mg (n = 33)): (0) %
Percent of subjects with Treatment-emergent SAE, Severe (30 mg (n = 33)): (0) %
Percent of subjects with Treatment-emergent adverse events (TEAE) (30 mg (n = 33)): (33) %
Percent of subjects with Treatment-emergent serious adverse events (SAE) (30 mg (n = 33)): (0) %
Percent of subjects with Treatment-related TEAEs (30 mg (n = 33)): (30) %
Percent of subjects with Treatment-related and severe TEAEs (30 mg (n = 33)): (0) %
Percent of subjects with Treatment-related treatment-emergent SAEs (30 mg (n = 33)): (0) %
Number of subjects with TEAE, Mild (30 mg (n = 33)): 7
Number of subjects with TEAE, Moderate (30 mg (n = 33)): 4
Number of subjects with TEAE, Severe (30 mg (n = 33)): 0
Percent of subjects with TEAE, Mild (30 mg (n = 33)): (21) %
Percent of subjects with TEAE, Moderate (30 mg (n = 33)): (12) %
Percent of subjects with TEAE, Severe (30 mg (n = 33)): (0) %
Serious adverse events (SAEs) (30 mg or 60 mg single IV infusion): no serious adverse events
Number of subjects with Any adverse events (AE) (60 mg (n = 35)): 19
Number of subjects with Serious TEAEs resulting in treatment discontinuation (60 mg (n = 35)): 0
Number of subjects with TEAE with outcome of death (60 mg (n = 35)): 0
Number of subjects with TEAEs of COVID-19 (60 mg (n = 35)): 0
Number of subjects with TEAEs resulting in discontinuation from study (60 mg (n = 35)): 0
Number of subjects with TEAEs resulting in treatment discontinuation (60 mg (n = 35)): 0
Number of subjects with Treatment-emergent SAE, Mild (60 mg (n = 35)): 0
Number of subjects with Treatment-emergent SAE, Moderate (60 mg (n = 35)): 0
Number of subjects with Treatment-emergent SAE, Severe (60 mg (n = 35)): 0
Number of subjects with Treatment-emergent adverse events (TEAE) (60 mg (n = 35)): 18
Number of subjects with Treatment-emergent serious adverse events (SAE) (60 mg (n = 35)): 0
Number of subjects with Treatment-related TEAEs (60 mg (n = 35)): 16
Number of subjects with Treatment-related and severe TEAEs (60 mg (n = 35)): 2
Number of subjects with Treatment-related treatment-emergent SAEs (60 mg (n = 35)): 0
Percent of subjects with Any adverse events (AE) (60 mg (n = 35)): (54) %
Percent of subjects with Serious TEAEs resulting in treatment discontinuation (60 mg (n = 35)): (0) %
Percent of subjects with TEAE with outcome of death (60 mg (n = 35)): (0) %
Percent of subjects with TEAEs of COVID-19 (60 mg (n = 35)): (0) %
Percent of subjects with TEAEs resulting in discontinuation from study (60 mg (n = 35)): (0) %
Percent of subjects with TEAEs resulting in treatment discontinuation (60 mg (n = 35)): (0) %
Percent of subjects with Treatment-emergent SAE, Mild (60 mg (n = 35)): (0) %
Percent of subjects with Treatment-emergent SAE, Moderate (60 mg (n = 35)): (0) %
Percent of subjects with Treatment-emergent SAE, Severe (60 mg (n = 35)): (0) %
Percent of subjects with Treatment-emergent adverse events (TEAE) (60 mg (n = 35)): (51) %
Percent of subjects with Treatment-emergent serious adverse events (SAE) (60 mg (n = 35)): (0) %
Percent of subjects with Treatment-related TEAEs (60 mg (n = 35)): (46) %
Percent of subjects with Treatment-related and severe TEAEs (60 mg (n = 35)): (6) %
Percent of subjects with Treatment-related treatment-emergent SAEs (60 mg (n = 35)): (0) %
Number of subjects with TEAE, Mild (60 mg (n = 35)): 9
Number of subjects with TEAE, Moderate (60 mg (n = 35)): 7
Number of subjects with TEAE, Severe (60 mg (n = 35)): 2
Percent of subjects with TEAE, Mild (60 mg (n = 35)): (26) %
Percent of subjects with TEAE, Moderate (60 mg (n = 35)): (20) %
Percent of subjects with TEAE, Severe (60 mg (n = 35)): (6) %
